Test results as given in patent US20230147455A1, “COMPOUNDS FOR THE PROPHYLAXIS AND/OR TREATMENT OF ACUTE RESPIRATORY DISTRESS SYNDROME” (SERVICIO ANDALUZ DE SALUD, priority 2020, published 2023).
Like-named read-outs stand apart in the source and are kept apart here.

Key:
[1] = system: COVID-19; assay: Retrospective multicenter cohort study of patients hospitalized with COVID-19, intrahospital mortality; type: in vivo, human
[2] = system: SARS-CoV-2; assay: Pilot randomized clinical trial: ICU admission of hospitalized patients with or without calcifediol; type: in vivo; conditions: calcifediol YES group, 42 patients
Procedure: Preliminary study performed from 10 Mar. 2020 on 72 patients admitted in pneumology department at Hospital Universitario Reina Sofia in Cordoba, according to hospital protocol.
Administration of vitamin D (calcifediol):
The difference is statistically significant: Chi-squared with Yates' correction p=0.0001.
As shown in the results, progression of the disease requiring admission to the ICU occurred in only 1 of all the patients who were treated with calcifediol.

[3] = patients with ALI and ARDS; cited from earlier work
[4] = in vivo; cited from earlier work
[5] = 14 clinical trials with 1303 patients; cited from earlier work
[6] = phase III study conducted in 2000; cited from earlier work
[7] = system: renin and Ang II; conditions: rat lung tissues treated with lipopolysaccharide; cited from earlier work
[8] = cited from earlier work

C=C1CC[C@H](O)C/C1=C/C=C1\CCC[C@]2(C)[C@@H]([C@H](C)CCCC(C)(C)O)CC[C@@H]12 [calcifediol, 25-hydroxycholecalciferol]
mortality rate ([1]; 79 hospitalized COVID-19 patients who received calcifediol, vs 20.7% without, p <0.001): 5.1% | HR for mortality ([1]; fitted Cox proportional hazards models, calcifediol vs no calcifediol): 0.17 (95% CI: 0.05 to 0.51) | death OR ([1]; patients who received calcifediol compared with patients who did not): 0.20 (95% CI, 0.07 to 0.57) | reduction of ICU admissions and death by process ([1]; patients with COVID-19, general statement at head of Example 2): at least 25% | ICU NO (number of patients not admitted to the ICU) [2]: 41 | ICU YES (number of patients admitted to the ICU) ([2]; vs 13 of 30 without calcifediol, Chi-squared with Yates' correction p=0.0001): 1

CC(=O)N[C@@H](CS)C(=O)O [N-acetylcysteine]
mortality benefit [3]: have not shown any mortality benefits

C[C@H](/C=C/[C@H](C)C(C)(C)O)[C@H]1CC[C@H]2/C(=C/C=C3C[C@@H](O)C[C@H](O)C3)CCC[C@]12C [Paricalcitol, 19-nor-1,25-(OH)2-vitamin D2]
effect on LPS-induced acute lung injury [4]: improved the LPS-induced acute lung injury or SARS by maintaining the alveolar barrier function

nitric oxide [inhaled NO]
oxygenation, survival, days off a ventilator [5]: only a temporary improvement in oxygenation without the benefit of survival or an increase in days off a ventilator

CC(=O)N1CCN(c2ccc(OCC3COC(Cn4ccnc4)(c4ccc(Cl)cc4Cl)O3)cc2)CC1 (centres unmarked) [Ketoconazole]
mortality and secondary outcome measures [6]: did not show any improvement in mortality or in secondary outcome measures

C=C1/C(=C\C=C2/CCC[C@]3(C)[C@@H]([C@H](C)CCCC(C)(C)O)CC[C@@H]23)C[C@@H](O)C[C@@H]1O [Calcitriol, 1-alpha,25-dihydroxycholecalciferol]
expression of renin and Ang II [7]: suppresses the expression of renin and Ang II

vitamin D
mortality at 28 days ([8]; by intramuscular or intravenous injection, vs placebo 40.8%): 25.6% | OR, mortality at 28 days ([8]; grouped analysis of the 9 RCTs, 95% CI 0.46-1.15): 0.73 | mortality at 28 days ([8]; grouped analysis of the 9 RCTs, vs placebo 21.7%): 20.4% | OR, mortality at 28 days ([8]; high daily dose, CI 95% 0.51-1.36): 0.83 | mortality at 28 days ([8]; high daily dose, vs placebo 19.8%): 20.9% | OR, mortality at 28 days ([8]; low daily dose, 95% CI 0.32-1.68): 0.74 | mortality at 28 days ([8]; low daily dose, vs placebo 21.3%): 15.6% | OR, mortality at 28 days ([8]; only enterally, 95% CI 0.88-1.57): 1.19 | mortality at 28 days ([8]; only enterally, vs placebo 18.2%): 19.9% | duration of the stay in the ICU, standard mean difference [SMD] ([8]; vitamin D vs placebo, 95% CI −0.61 to 0.01): −0.30 | duration of hospital stay, SMD ([8]; vitamin D vs placebo): −0.17 | duration of mechanical ventilation, SMD ([8]; vitamin D vs placebo): −0.41
